For this assay, the system named is SK-ES-1. Briefly: relative viability vs DMSO control (72 h) (fraction); higher = more viable cells. The method, boiled down: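 Sarcoma cell lines were grown in 384-well plates seeded toward 80–90% confluence and exposed 24 h later to serially diluted compound. After 72 h at 37 °C and 5% CO2, with 0.1% DMSO vehicle and a 5 µM positive control on the plates, ATPLite was read. Relative viability, given as percent growth averaged over up to triplicate wells, was rescaled so that 1 is full and 0 is none.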

± gives the standard deviation of the averaged measurements.

As to `COc1c(OCCCN2CCOCC2)ccc2c1N=C(NC(=O)c1cnc(N)nc1)N1CCN=C21` [Copanlisib], the relative viability by setting is: (0.00017 µM) 1.02 ± 0.022; (0.00051 µM) 1.07 ± 0.036; (0.00152 µM) 1.01 ± 0.021; (0.00457 µM) 0.808 ± 0.019; (0.01372 µM) 0.629 ± 0.015; (0.04115 µM) 0.4325 ± 0.0023. Also, the relative viability reads like this: (0.1235 µM) 0.3049 ± 0.0025; (0.3704 µM) 0.214 ± 0.016; (1.111 µM) 0.15 ± 0.0035; (3.333 µM) 0.0822 ± 0.0034; (10 µM) 0.0455 ± 0.0028.
With `CN1CCN(c2ccc3nc(-c4c(N)c5c(F)cccc5[nH]c4=O)[nH]c3c2)CC1` [Dovitinib], the relative viability was found to be 1.02 ± 0.013 (0.00017 µM); 1.07 ± 0.037 (0.00051 µM); 1.044 ± 0.0086 (0.00152 µM); 1.03 ± 0.022 (0.00457 µM); 1.07 ± 0.015 (0.01372 µM); 0.963 ± 0.049 (0.04115 µM). In addition, the relative viability runs as follows: (0.1235 µM) 0.937 ± 0.039; (0.3704 µM) 0.676 ± 0.012; (1.111 µM) 0.365 ± 0.0063; (3.333 µM) 0.155 ± 0.017; (10 µM) 0.0451 ± 0.0026.
With `COCc1c(-c2cc3cc(C)cc(OC)c3s2)c2c(N)ncnn2c1CN1CCNC(=O)C1` [Rogaratinib], the relative viability reads like this: (0.00017 µM) 1.04 ± 0.043; (0.00051 µM) 1.03 ± 0.044; (0.00152 µM) 1.02 ± 0.035; (0.00457 µM) 1.03 ± 0.049; (0.01372 µM) 1.07 ± 0.045; (0.04115 µM) 1.05 ± 0.065. In addition, the relative viability runs as follows: (0.1235 µM) 0.982 ± 0.062; (0.3704 µM) 0.97 ± 0.011; (1.111 µM) 0.848 ± 0.075; (3.333 µM) 0.659 ± 0.027; (10 µM) 0.463 ± 0.03.
Regarding `CN1CCC(COc2cnc(-c3cccc(Cn4nc(-c5cccc(C#N)c5)ccc4=O)c3)nc2)CC1` [Tepotinib], the relative viability is 0.997 ± 0.018 (0.00017 µM); 1.08 ± 0.037 (0.00051 µM); 1.06 ± 0.026 (0.00152 µM); 1.06 ± 0.023 (0.00457 µM); 1.02 ± 0.018 (0.01372 µM); 1.06 ± 0.028 (0.04115 µM). Moreover, the relative viability runs as follows: (0.1235 µM) 1.003 ± 0.0064; (0.3704 µM) 1 ± 0.037; (1.111 µM) 0.974 ± 0.045; (3.333 µM) 0.98 ± 0.038; (10 µM) 0.718 ± 0.031.
